This passage reports EC50 results from patent US12091409B2, “Ether linked triazoles as NRF2 activators” (ASTEX THERAPEUTICS LIMITED, priority 2016, dated 2024).

The test has as its system NQO1 specific enzyme activity in BEAS-2B cells (marker for NRF2 activation). The test can be described thus: BEAS-2B NQO1 MTT Assay. Particulars: Homo sapiens, BEAS-2B, 48 h, NQO1 specific activity induction, 48 hours with compound. Format: cell-based. An excerpt: NAD(P)H:quinone oxidoreductase 1 (NQO1), also called DT diaphorase, is a homodimeric FAD-containing enzyme that catalyzes obligatory NAD(P)H-dependent two-electron reductions of quinones and protects cells against the toxic and neoplastic effects of free radicals and reactive oxygen species arising from one-electron reductions. The transcription of NQO1 is finely regulated by NRF2, and thus NQO1 activity is a good marker for NRF2 activation. On day one, frozen BEAS-2B cells (ATCC) were thawed in a water bath, counted, and re-suspended at a concentration of 250,000 cells/mL. Fifty microliters of cells were plated in 384 well black clear-bottomed plates. Plates were incubated at 37° C., 5% CO2 overnight. On day two, plates were centrifuged and 50 nL of compound or controls were added to the cells. Plates were then incubated at 37° C., 5% CO2 for 48 hours. On day four, medium was aspirated from the plate and crude cell lysates were made by adding 13 uL of 1× Cell Signaling Technologies lysis buffer with 1 Complete, Mini, EDTA-free Protease Inhibitor Tablet (Roche) for each 10 mL of lysis buffer. After lysis plates were incubated for 20 minutes at room temperature. Two microliters of lysate were removed for use in Cell Titer Glo assay (Promega) and MTT cocktail was prepared (Prochaska et. al. 1998) for measurement of NQO1 activity. Fifty microliters of MTT cocktail was added to each well, plate was centrifuged, and analyzed on an Envision plate reader (Perkin Elmer) using Absorbance 570 nm label for 30 minutes. Product formation was measured kinetically and the pEC50 of NQO1 specific activity induction was calculated by plotting the change in absorbance (Delta OD/min) versus the log of compound concentration followed by 3-parameter fitting.
pEC50 is the negative log of the EC50.
EC50s<1 nM (+++++), EC50s 1 nM-10 nM (++++), EC50s 10 nM-100 nM (+++), EC50s 100 nM-1 uM (++), EC50s 1 uM-10 uM (+); EC50s>10 uM (−), or were not determined (ND).
For the compound `CCCn1cc(COC(c2ccc(C)c(CN3CC(C)(C)Oc4ccccc4S3(=O)=O)c2)C(C)(C)C(=O)O)nn1` (stereo not drawn) [Example 9, 3-(3-((4,4-Dimethyl-1,1-dioxido-3,4-dihydo-2H-benzo[b][1,4]oxathiazepin-2-yl)methyl)-4-methylphenyl)-2,2-dimethyl-3-((1-propyl-1H-1,2,3-triazol-4-yl)methoxy)-propanoic acid], the EC50 lay within 1 to 10 nM.

Regarding `CC[C@@H]1CN(Cc2cc(C(OCc3cn(CC)nn3)C(C)(C)C(=O)O)ccc2C)S(=O)(=O)c2ccccc2O1` (stereo partly drawn) [Example 10, 3-(3-(((R)-4-ethyl-1,1-dioxido-3,4-dihydro-2H-benzo[b][1,4,5]oxathiazepin-2-yl)methyl)-4-methylphenyl)-3-((1-ethyl-1H-1,2,3-triazol-4-yl)methoxy)-2,2-dimethylpropanoic acid], the EC50 was < 1 nM.

As to `CCn1cc(COC(c2ccc(C)c(CN3C[C@@H](C)Oc4ccccc4S3(=O)=O)c2)C(C)(C)C(=O)O)nn1` (stereo partly drawn) [Example 11, 3-((1-Ethyl-1H-1,2,3-triazol-4-yl)methoxy)-2,2-dimethyl-3-(4-methyl-3-(((R)-4-methyl-1,1-dioxido-3,4-dihydro-2H-benzo[b][1,4,5]oxathiazepin-2-yl)methyl)phenyl)propanoic acid], the EC50 was in the range of 1 to 10 nM.

In the case of `CCn1cc(COC(c2ccc(C)c(CN3CC(C)(C)Oc4ccccc4S3(=O)=O)c2)C(C)(C)C(=O)O)nn1` (stereo not drawn) [Example 12, 3-(3-((4,4-dimethyl-1,1-dioxido-3,4-dihydro-2H-benzo[b][1,4,5]oxathiazepin-2-yl)methyl)-4-methylphenyl)-3-((1-ethyl-1H-1,2,3-triazol-4-yl)methoxy)-2,2-dimethylpropanoic acid], the EC50 was 1 to 10 nM.

For the compound `Cc1ccc(C(OCc2cn(C3CCCCC3)nn2)C(C)(C)C(=O)O)cc1CN1C[C@@H](C)Oc2ccccc2S1(=O)=O` (stereo partly drawn) [Example 17, 3-((1-Cyclohexyl-1H-1,2,3-triazol-4-yl)methoxy)-2,2-dimethyl-3-(4-methyl-3-(((R)-4-methyl-1,1-dioxido-3,4-dihydro-2H-benzo[b][1,4,5]oxathiazepin-2-yl)methyl)phenyl)propanoic acid], the EC50 lay in the range of 1 to 10 nM.

In the case of `Cc1ccc(C(OCc2cn(CC3CCCN(C(=O)OC(C)(C)C)C3)nn2)C(C)(C)C(=O)O)cc1CN1C[C@@H](C)Oc2ccccc2S1(=O)=O` (stereo partly drawn) [Example 18, 3-((1-((1-(Tert-butoxycarbonyl)piperidin-3-yl)methyl)-1H-1,2,3-triazol-4-yl)methoxy)-2,2-dimethyl-3-(4-methyl-3-(((R)-4-methyl-1,1-dioxido-3,4-dihydro-2H-benzo[b][1,4,5]oxathiazepin-2-yl)methyl)phenyl)propanoic acid], the EC50 is 1 to 10 nM.

In the case of `Cc1ccc(C(OCc2cn(Cc3ccc(CN=[N+]=[N-])cc3)nn2)C(C)(C)C(=O)O)cc1CN1C[C@@H](C)Oc2ccccc2S1(=O)=O` (stereo partly drawn) [Example 19, 3-((1-(4-(Azidomethyl)benzyl)-1H-1,2,3-triazol-4-yl)methoxy)-2,2-dimethyl-3-(4-methyl-3-(((R)-4-methyl-1,1-dioxido-3,4-dihydro-2H-benzo[b][1,4,5]oxathiazepin-2-yl)methyl)phenyl)propanoic acid], the EC50 lay in the range of 1 to 10 nM.

On to `Cc1ccc(C(OCc2cn(CC3CCN(C(=O)OC(C)(C)C)CC3)nn2)C(C)(C)C(=O)O)cc1CN1C[C@@H](C)Oc2ccccc2S1(=O)=O` (stereo partly drawn) [Example 20, 3-((1-((1-(Tert-butoxycarbonyl)piperidin-4-yl)methyl)-1H-1,2,3-triazol-4-yl)methoxy)-2,2-dimethyl-3-(4-methyl-3-(((R)-4-methyl-1,1-dioxido-3,4-dihydro-2H-benzo[b][1,4,5]oxathiazepin-2-yl)methyl)phenyl)propanoic acid], for which the concentration for a half-maximal effect (EC50) lay in the range of 1 to 10 nM.

`CC[C@@H]1CN(Cc2cc(C(OCc3cn(Cc4cccc(C(=O)O)c4)nn3)C(C)(C)C(=O)O)ccc2C)S(=O)(=O)c2ccccc2O1` (stereo partly drawn) [Example 21, 3-((4-((2-Carboxy-1-(3-(((R)-4-ethyl-1,1-dioxido-3,4-dihydro-2H-benzo[b][1,4,5]oxathiazepin-2-yl)methyl)-4-methylphenyl)-2-methylpropoxy)methyl)-1H-1,2,3-triazol-1-yl)methyl)benzoic acid]: the EC50 lay within 100 to 1000 nM.

As for `CC[C@@H]1CN(Cc2cc(C(OCc3cn(Cc4cccc(-c5ccc(C(=O)O)cc5)c4)nn3)C(C)(C)C(=O)O)ccc2C)S(=O)(=O)c2ccccc2O1` (stereo partly drawn) [Example 22, 3′-((4-((2-Carboxy-1-(3-(((R)-4-ethyl-1,1-dioxido-3,4-dihydro-2H-benzo[b][1,4,5]oxathiazepin-2-yl)methyl)-4-methylphenyl)-2-methylpropoxy)methyl)-1H-1,2,3-triazol-1-yl)methyl)-[1,1′-biphenyl]-4-carboxylic acid], the EC50 fell in the range of 1 to 10 nM.

Regarding `CC[C@@H]1CN(Cc2cc(C(OCc3cn(Cc4cccc(-c5cccc(C(=O)O)c5)c4)nn3)C(C)(C)C(=O)O)ccc2C)S(=O)(=O)c2ccccc2O1` (stereo partly drawn) [Example 23, 3′-((4-((2-Carboxy-1-(3-(((R)-4-ethyl-1,1-dioxido-3,4-dihydro-2H-benzo[b][1,4,5]oxathiazepin-2-yl)methyl)-4-methylphenyl)-2-methylpropoxy)methyl)-1H-1,2,3-triazol-1-yl)methyl)-[1,1′-biphenyl]-3-carboxylic acid], the EC50 was 10 to 100 nM.

For the compound `CC[C@@H]1CN(Cc2cc(C(OCc3cn(Cc4cccc(-c5ccc(C(=O)O)c(F)c5)c4)nn3)C(C)(C)C(=O)O)ccc2C)S(=O)(=O)c2ccccc2O1` (stereo partly drawn) [Example 24, 3′-((4-((2-Carboxy-1-(3-(((R)-4-ethyl-1,1-dioxido-3,4-dihydro-2H-benzo[b][1,4,5]oxathiazepin-2-yl)methyl)-4-methylphenyl)-2-methylpropoxy)methyl)-1H-1,2,3-triazol-1-yl)methyl)-3-fluoro-[1,1′-biphenyl]-4-carboxylic acid], the EC50 was in the range of 10 to 100 nM.

`Cc1ccc(C(OCc2cn(Cc3cccc(-c4ccc(C(=O)O)cc4)c3)nn2)C(C)(C)C(=O)O)cc1CN1C[C@@H](C)Oc2ccccc2S1(=O)=O` (stereo partly drawn) [Example 25, 3′-((4-((2-Carboxy-2-methyl-1-(4-methyl-3-(((R)-4-methyl-1,1-dioxido-3,4-dihydro-2H-benzo[b][1,4,5]oxathiazepin-2-yl)methyl)phenyl)propoxy)methyl)-1H-1,2,3-triazol-1-yl)methyl)-[1,1′-biphenyl]-4-carboxylic acid]: the EC50 fell in the range of 10 to 100 nM.

As for `Cc1ccc(C(OCc2cn(Cc3cccc(-c4cccc(C(=O)O)c4)c3)nn2)C(C)(C)C(=O)O)cc1CN1C[C@@H](C)Oc2ccccc2S1(=O)=O` (stereo partly drawn) [Example 26, 3′-((4-((2-Carboxy-2-methyl-1-(4-methyl-3-(((R)-4-methyl-1,1-dioxido-3,4-dihydro-2H-benzo[b][1,4,5]oxathiazepin-2-yl)methyl)phenyl)propoxy)methyl)-1H-1,2,3-triazol-1-yl)methyl)-[1,1′-biphenyl]-3-carboxylic acid], the EC50 was 10 to 100 nM.

On to `CC[C@@H]1CN(Cc2cc(C(OCc3cn(Cc4cc(C)cc(Cn5cc(CO)nn5)c4)nn3)C(C)(C)C(=O)O)ccc2C)S(=O)(=O)c2ccccc2O1` (stereo partly drawn) [Example 27, 3-(3-(((R)-4-ethyl-1,1-dioxido-3,4-dihydro-2H-benzo[b][1,4,5]oxathiazepin-2-yl)methyl)-4-methylphenyl)-3-((1-(3-((4-(hydroxymethyl)-1H-1,2,3-triazol-1-yl)methyl)-5-methylbenzyl)-1H-1,2,3-triazol-4-yl)methoxy)-2,2-dimethylpropanoic acid], for which the EC50 was 1 to 10 nM.
